Test results reported in the NIST ThermoML archive (doi:10.1021/acs.jced.5b00367).

Assay: wn = mass fraction of the nth substance listed
Details: 101 kPa, Liquid, Alternating current cell with electrodes, w1 = 0.01

CCCCCCCCCC[N+](CC)(CC)CCCCCCCCCC.[Br-] [didecyldiethylammonium bromide] + O
Details	electrical conductivity [S/m]
277.55 K	0.0116
277.75 K	0.0115
277.85 K	0.0116
277.95 K	0.0116
278.15 K	0.0117
278.25 K	0.0117
278.35 K	0.0117
278.45 K	0.0116
278.55 K	0.0116
278.65 K	0.0116
278.75 K	0.0117
278.85 K	0.0117
279.05 K	0.0118
279.15 K	0.0118
279.25 K	0.0118
279.35 K	0.0119
279.55 K	0.012
279.65 K	0.012
279.85 K	0.012
279.95 K	0.012
280.15 K	0.0121
280.25 K	0.0121
280.35 K	0.0122
280.45 K	0.0122
280.55 K	0.0123
280.65 K	0.0123
280.75 K	0.0123
280.95 K	0.0123
281.05 K	0.0124
281.15 K	0.0124
281.25 K	0.0124
281.35 K	0.0125
281.45 K	0.0126
281.55 K	0.0126
281.65 K	0.0127
281.75 K	0.0127
281.85 K	0.0127
281.95 K	0.0127
282.05 K	0.0128
282.15 K	0.0129
282.35 K	0.0128
282.45 K	0.0129
282.55 K	0.013
282.65 K	0.013
282.75 K	0.0131
282.85 K	0.0131
282.95 K	0.0131
283.05 K	0.0132
283.15 K	0.0132
283.25 K	0.0133
283.35 K	0.0133
283.45 K	0.0134
283.55 K	0.0134
283.75 K	0.0135
283.85 K	0.0136
283.95 K	0.0136
284.05 K	0.0136
284.15 K	0.0137
284.25 K	0.0137
284.35 K	0.0138
284.45 K	0.0139
284.55 K	0.0138
284.65 K	0.0139
284.75 K	0.014
284.85 K	0.0141
284.95 K	0.0141
285.05 K	0.0143
285.15 K	0.0143
285.25 K	0.0142
285.35 K	0.0144
285.45 K	0.0145
285.55 K	0.0146
285.65 K	0.0146
285.75 K	0.0148
285.85 K	0.0147
285.95 K	0.015
286.05 K	0.015
286.15 K	0.0152
286.25 K	0.0152
286.35 K	0.0154
286.45 K	0.0155
286.55 K	0.0157
286.65 K	0.0158
286.75 K	0.016
286.85 K	0.0161
286.95 K	0.0164
287.05 K	0.0164
287.15 K	0.0167
287.25 K	0.0169
287.35 K	0.0172
287.45 K	0.0175
287.55 K	0.0177
287.65 K	0.0179
287.75 K	0.0182
287.85 K	0.0186
287.95 K	0.0189
288.05 K	0.0192
288.15 K	0.0196
288.25 K	0.0201
288.35 K	0.0206
288.45 K	0.021
288.55 K	0.0213
288.65 K	0.0218
288.75 K	0.022
288.85 K	0.0225
288.95 K	0.0227
289.05 K	0.0228
289.15 K	0.0233
289.25 K	0.0238
289.35 K	0.0241
289.45 K	0.0243
289.55 K	0.0249
289.75 K	0.0256
289.85 K	0.0262
289.95 K	0.0267
290.05 K	0.0274
290.15 K	0.028
290.25 K	0.0287
290.35 K	0.0297
290.45 K	0.0305
290.55 K	0.0311
290.65 K	0.0319
290.75 K	0.0329
290.85 K	0.0339
290.95 K	0.0352
291.15 K	0.0365
291.25 K	0.0379
291.35 K	0.0395
291.45 K	0.0401
291.55 K	0.0419
291.65 K	0.0447
291.75 K	0.0451
291.85 K	0.047
291.95 K	0.0496
292.05 K	0.0526
